Legend:
Format in all cases: cell-based
[1] = system: Rat corneal epithelial cell; test: Cell protective effect: cell survival during preservation (trypan blue excretion test); conditions: for Average survival rate at 72 hours: refrigerator 4° C.; for Average survival rate at 24 hours: normal temperature (22° C.)
Description: (§1) Using a normal serum-free cell culture solution without FBS or a Ringer's solution (Otsuka Pharmaceutical Co., Ltd., Lactec Injection, Japanese Pharmacopoeia, Sodium L-lactate Ringer's solution) as a conditioning solution for use, for example, in preservation and transportation of cells, sodium alginate (Na alginate) (Fuji Chemical Industry Co., Ltd. Snow Algin SSL, viscosity of 1% aqueous solution is 30 mPa·s at 20° C.) was added to the conditioning solution in the concentrations shown in Table 1 to prepare cell preservation solutions. To each cell preservation solution, the above-described cells were added at a concentration of 10^6 cells/ml to satisfy the conditions shown in Table 1, and the resultant solution was left to stand in a room at normal temperature (22° C.) for 24 hours, and then whether cells were alive or dead was determined, and rates of viable cells (average survival rate (%)) were calculated and compared. Cell viability was determined by the trypan blue excretion test that is the ordinary method of confirming cell viability. The excretion test was performed according to the method described in “Denizot F., et al., Rapid colorimetric assay for cell growth and survival. Modifications to the tetrazolium dye procedure giving improved sensitivity and reliability. J. Immunol. Methods, 89, 271-277 (1986)”. The results are of N=4.
(§2) The average survival rate (%) was determined in the same manner as in Experimental Example (1-1-1) except that the preservation conditions were changed to leaving still for 72 hours in a refrigerator at a set temperature of 4° C. The results are of N=4.
The average survival rate (%) of cells was determined in the same manner as in Experimental Example (1-1-1) except that dextran sulfate (dextran sulfate special grade reagent available from NACALAI TESQUE, INC.) was used instead of sodium alginate and the conditions were as shown in Table 3. The results are of N=4.
The average survival rate (%) of cells was determined in the same manner as in Experimental Example (1-2-1) except that the preservation conditions were changed to leaving still for 72 hours in a refrigerator at a set temperature of 4° C. and to conditions shown in Table 4. The results are of N=3 in the case of using a serum-free cell culture solution, and are of N=4 in the case of using a Ringer's solution.
The average survival rate (%) of cells was determined in the same manner as in Experimental Example (1-1-1) except that heparin sodium (Heparin Na Mochida, unfractionated heparin, available from Mochida Pharmaceutical Co., Ltd.) was used instead of alginic acid and the conditions were as shown in Table 5. The results are of N=4.
The average survival rate (%) of cells was determined in the same manner as in Experimental Example (1-3-1) except that the preservation conditions were changed to leaving still for 72 hours in a refrigerator at a set temperature of 4° C. and to conditions shown in Table 6. The results are of N=4.
The average survival rate (%) of cells was determined in the same manner as in Experimental Example (1-3-2) except that urinastatin (Miraclid injection solution, containing 2.5 million units, available from Mochida Pharmaceutical Co., Ltd.) was used as a proteolytic enzyme inhibitor instead of heparin sodium and the conditions were as shown in Table 7. The results are of N=4. “Unit (U)” in the unit of concentration (units/mL) of inhibitor a in Table 7 can be measured, for example, by the quantitative method of urinastatin in the Japanese Pharmacopoeia 15th revision. Specifically, absorbance at 405 nm of a sample solution is measured with a UV 240 spectrophotometer, and concentration of urinastatin can be calculated from a calibration curve prepared in advance. […]

[2] = system: Rat corneal epithelial cell; test: Cell detaching and suspending effect under gentle shaking (Experimental Example 5); conditions: cell culture solution containing 10% FBS, 37° C.
Description: In the same manner as in Experimental Example 4, rat corneal epithelial cells were sufficiently adhered to the culture dish wall which is a scaffold.
To the culture solutions in the culture dish on which cultured cells obtained in the manner as described above had adhered, each active ingredient was added in a concentration shown in Table 14, or no active ingredient was added. Each culture dish was then placed on the base of a shaker (product name: Laboshaker Model BC-740, available from BIO CRAFT Corporation), the shaking intensity was set to the lowest level, and the shaking frequency was set to 4 times/min, and cells were cultured under normal cell culture conditions (37° C., CO2 concentration of 5%, humidity of 100%) for 24 hours while each culture dish was gently shaken. Then, detachment and suspension of cells after 24 hours of culturing was observed. For determination of detachment and suspension, whether cells were detached from the dish wall and suspended under shaking of the culture dish was observed, and the case where 90% or more of the cells were detached and suspended was determined as “detached and suspended”, and “detached and suspended” cells were marked with “∘” and “undetached and unsuspended” cells were marked with “x”. The results are of N=4.

[3] = system: Chinese hamster fibroblast; test: Cell protective effect: cell survival during preservation (trypan blue excretion test); conditions: Chinese hamster fibroblasts; same preservation experiments; values not given
Description: as §1, §2

Row | Substance | Average survival rate at 72 hours ([1]; DS 0.003 mg/mL, Ringer's solution) | Average survival rate at 24 hours ([1]; DS 0.003 mg/mL, serum-free cell culture solution) | Average survival rate at 72 hours ([1]; DS 0.003 mg/mL, serum-free cell culture solution, N=3) | Average survival rate at 72 hours ([1]; DS 0.1 mg/mL, Ringer's solution) | Average survival rate at 24 hours ([1]; DS 0.1 mg/mL, serum-free cell culture solution) | Average survival rate at 72 hours ([1]; DS 0.1 mg/mL, serum-free cell culture solution, N=3) | Average survival rate at 72 hours ([1]; DS 1 mg/mL, Ringer's solution) | Average survival rate at 24 hours ([1]; DS 1 mg/mL, serum-free cell culture solution) | Average survival rate at 72 hours ([1]; DS 1 mg/mL, serum-free cell culture solution, N=3) | Detachment at lapse of 24 hours after addition of active ingredient ([2]; DS 0.5 mg/mL) | Effect of improving cell viability (cell protective effect) [3] | Average survival rate at 72 hours ([1]; Heparin Na 5 units/mL, Ringer's solution) | Average survival rate at 24 hours ([1]; Heparin Na 5 units/mL, serum-free cell culture solution) | Average survival rate at 72 hours ([1]; Heparin Na 25 units/mL, Ringer's solution) | Average survival rate at 24 hours ([1]; Heparin Na 25 units/mL, serum-free cell culture solution) | Average survival rate at 72 hours ([1]; Heparin Na 125 units/mL, Ringer's solution) | Average survival rate at 24 hours ([1]; Heparin Na 125 units/mL, serum-free cell culture solution) | Detachment at lapse of 24 hours after addition of active ingredient ([2]; Heparin Na 100 units/mL)
1 | dextran sulfate [DS] | 67% | 62% | 76% | 71% | 71% | 79% | 60% | 73% | 73% | ∘ (“detached and suspended” cells were marked with “∘”) | the cell protective effect was also observed | – | – | – | – | – | – | –
2 | heparin sodium [Heparin Na, reference compound] | – | – | – | – | – | – | – | – | – | – | the cell protective effect was also observed | 70% | 69% | 72% | 75% | 74% | 76% | ∘ (“detached and suspended” cells were marked with “∘”)
